Laboratory results: article PMC12378621, “Benzo-ring modification on Malaria Box hit MMV008138: effects on antimalarial potency and microsomal stability” (RSC Medicinal Chemistry, 2025)
Values joined by “and” are separate entries in the source; they are usually repeats but may differ in a detail not shown here. Identical values can stand only once. Like-named read-outs stand apart in the source and are kept apart here.

How the values were obtained:
[1] = test system: P. falciparum (Dd2 strain); assay: ABS P. falciparum growth inhibition, SYBR Green I assay, 72 h endpoint; type: cell-based, Plasmodium falciparum; conditions: Plasmodium falciparum, DD2; control in growth inhibition / IPP rescue assays; read-out: EC50 of MMV008138 used as control
Method: Parasites were maintained in O-positive human erythrocytes (Grifols, Memphis, TN, USA) at 5% hematocrit in RPMI 1640 medium supplemented with 5 g L^−1 Albumax I (Gibco Life Technologies), 2 g L^−1 glucose (Sigma-Aldrich), 2.3 g L^−1 sodium bicarbonate (Sigma-Aldrich), 370 μM hypoxanthine (Sigma-Aldrich), 25 mM HEPES, and 20 mg L^−1 gentamicin (Gibco Life Technologies). The parasites were kept at 37 °C under reduced-oxygen conditions (5% CO2, 5% O2, and 90% N2).
[…]. MMV008138 (1) was used as control. The percentage of growth was normalized to that of untreated control parasites in the presence of 0.1% DMSO. Background determinations were made using uninfected erythrocytes. Two or more independent experiments in duplicate were performed. The EC50 values were calculated with GraphPad Prism 9 (GraphPad Software Ltd.) using nonlinear regression curve fitting with variable slope (four parameters) and represent the average and their standard error of the mean (S.E.M.). To assess whether 20a–e specifically targeted the apicoplast, the recovery of growth in the presence of inhibitor and isopentenyl diphosphate (IPP) was performed as described previously.[8] Briefly, parasites were grown in the presence or absence of 200 μM IPP along with a serial dilution (10 μM to 0.01 μM) or single concentration (10 or 20 μM) of drug. […] All conditions were set in 96-well half area plates using highly synchronous ring-stage parasite cultures (100 μL per well at 1% hematocrit and 1% parasitemia) and incubated for 72 h under normal culture conditions. Parasite growth was measured by the SYBR green I assay.

[2] = test system: P. vivax IspD; design: method as in PMID 26783558; conditions: cited from earlier work
[3] = test system: P. falciparum (Dd2 strain); design: method as in PMID 25754494; conditions: drug at 2.5 μM; previously reported; cited from earlier work
[4] = test system: P. falciparum IspD; design: method as in PMID 26783558; conditions: cited from earlier work
[5] = in vivo; conditions: mouse
Method: 3. Pharmacokinetics of 1 in mice
Pharmacokinetic analysis of 1 in mice was performed by Pharmaron (Beijing, China). Three mice each (23 ± 1 g) were used for oral (40 mg/kg, gavage, conscious) and for IV (10 mg/kg, lateral tail vein with anesthesia) administration. The vehicle for both routes wa s 20% DMSO, 60% PEG400 and 20% SBE-β-CD (30% w/v) in water. Stock concentrations were 4 mg/mL (both oral and IV respectively), and mice were dosed at 10.0 and 2.5 mL/kg (oral and IV respectively).
Quantitation was performed by triple-quad LC-MS.

[6] = test system: Plasmodium berghei ANKA expressing luciferase (PbGFP-Luccon); assay: In vivo efficacy in P. berghei-infected mice (luminescence on Day 7)
Method: 2. In vivo efficacy studies of 1 (NYU) in P. berghei-infected mice (po and iv) Efficacy of 1 in P. berghei-infected mice was assessed at the Anti-Infectives Core Facility, Department of Microbiology, Grossman School of Medicine, New York University.
A. Oral Administration Protocol
Three groups of five female Swiss Webster mice weighing 25 to 30 g were used for vehicle […]
berghei ANKA expressing luciferase (PbGFP-Luccon) obtained from a donor infected mouse.10 […]
2 to 6 and imaged on day 7.
Figure S1. Dosing and imaging timeline of P. berghei-infected mice. […]
Day 7 as described in the text.
The vehicle for all groups was 0.5% (hydroxypropyl)methyl cellulose, 0.5% Tween-80.
For the surviving mice, o n day 7 after infection, mice were anesthetized by inhalation of isofluorane and injected via i.p. with 150 mg/kg of luciferase substrate dissolved in PBS (D-Luciferin Potassium Salt , Gold Biotechnology ).
Mice were imaged 5 to 10 min after inj ection of luciferin using an IVIS imager (Lumina II In Vivo Imaging System; Perkin -Elmer). The data acquisition and analysis were performed with LivingImage (Xenogen). Accumulated light intensity was measured in each mouse to determine the baseline infection levels before treatment .
(§1) (1 picture or pasted object on this page, not shown here)
B. IV Administration Protocol
One group of four female Swiss Webster mice weighing 25 to 30 g were used for vehicle control, and groups of five mice were used for 1 treatment (IV, 2 x 30 mg/kg/d) and the positive […]
On Day 0, mice were infected via intraperitoneal (i.p.) […]
from a donor infected mouse. 10 As shown below in Figure S2 (and legend), mice were treated […]
Figure S2. Dosing and imaging timeline of P. berghei-infected mice. Vehicle and 1 (30 mpk) treatments were administered IV twice -daily on Days 2-6. […]
administered i .p. once-daily. Mice were imaged on Day 7, as described in the text.
The vehicle for this study was 30%PEG, 40% Captisol (30%w/v solution).
Table S2. Luminescence Data after background subtraction for IV dosing of Vehicle, 1, and IP […]
Table S9. Concentration of 20c vs time in mice. […]
Figure S6. Dosing and imaging timeline of P. berghei-infected mice. […]

[7] = test system: P. falciparum (Dd2 strain); conditions: SYBR Green I, 72 h endpoint; previously reported; read-out: Dd2 strain P. falciparum growth inhibition EC50; cited from earlier work
[8] = in vitro; conditions: male, mouse, microsomes
Method: Metabolic stability of 1 was studied in pooled male mouse liver microsomes (final concentration 0.5 mg/mL, 5 mM MgCl 2, 100 mM phosphate buffer). The final concentration of test […]
The mixture was pre-warmed 37°C for 5 min before addition of 50 μL of 10 mM NADPH solution at the final concentration of 1 mM and carried out at 37°C. 50 μL of ultra-pure H2O was used instead of NADPH solution in the […]
negative control. […] Drug […]
concentrations were determined using triple quad LC-MS (Table S5).
as §1

[9] = iv, 10 mg/kg, plasma concentration
[10] = po, 40 mg/kg, plasma concentration
[11] = Table S2, Days 2-6, imaged Day 7, Cmpd 1 30 mg/kg 2 x daily IV, CQ 20 mg/kg 1 x daily i.p.

**Q.** With `O=C(O)[C@@H]1Cc2c([nH]c3ccccc23)[C@@H](c2ccc(Cl)cc2Cl)N1` [Compound 1, reference compound] as the compound, how does the EC50 [1] read?
**A.** 170 ± 10 nM

**Q.** And the IC50 [2]?
**A.** 310 nM

**Q.** And the “% recovery (200 μM IPP)” value [3]?
**A.** 100%@2.5 μM ^c

**Q.** And the IC50 [4]?
**A.** 47 nM

**Q.** What about the AUC(0-inf) ([5]; iv, 10 mg/kg) of the same compound?
**A.** 38.4 ± 3.8 µM·h

**Q.** And the AUC(0-t) ([5]; iv, 10 mg/kg)?
**A.** 36.1 ± 3.6 µM·h

**Q.** And the C0 ([5]; iv, 10 mg/kg)?
**A.** 86 ± 6.6 µM

**Q.** And the Vd ([5]; iv, 10 mg/kg)?
**A.** 3.5 ± 0.43 L/kg

**Q.** What about the clearance ([5]; iv, 10 mg/kg) of the same compound?
**A.** 12.1 ± 1.3 mL/min/kg

**Q.** And the tlast ([5]; iv, 10 mg/kg)?
**A.** 24 h

**Q.** What about the concentration at 24 h ([5]; iv, 10 mg/kg, Cmin) of the same compound?
**A.** 0.164 ± 0.017 µM

**Q.** And the concentration at 0.083 h [5, 9]?
**A.** 58.6 ± 5.5 µM

**Q.** What about the concentration at 0.25 h [5, 9] of the same compound?
**A.** 27.1 ± 3.7 µM

**Q.** And the concentration at 0.5 h [5, 9]?
**A.** 14.8 ± 1.9 µM

**Q.** And the concentration at 1 h [5, 9]?
**A.** 4.8 ± 1.7 µM

**Q.** And the concentration at 2 h [5, 9]?
**A.** 1.3 ± 0.4 µM

**Q.** And the concentration at 4 h [5, 9]?
**A.** 0.66 ± 0.04 µM

**Q.** What about the concentration at 8 h [5, 9] of the same compound?
**A.** 0.51 ± 0.03 µM

**Q.** And the concentration at 24 h [5, 9]?
**A.** 0.16 ± 0.02 µM

**Q.** What about the half-life ([5]; iv, 10 mg/kg, t1/2) of the same compound?
**A.** 9.9 ± 4 h

**Q.** And the AUC0-inf ([5]; po, 40 mg/kg)?
**A.** 88 µM·h

**Q.** What about the AUC(0-inf) ([5]; po, 40 mg/kg) of the same compound?
**A.** 88 ± 15 µM·h

**Q.** And the AUC(0-t) ([5]; po, 40 mg/kg)?
**A.** 79 ± 8.9 µM·h

**Q.** What about the Cmax ([5]; po, 40 mg/kg) of the same compound?
**A.** 46.1 ± 7.3 µM

**Q.** And the Tmax ([5]; po, 40 mg/kg)?
**A.** 0.25 h

**Q.** What about the tlast ([5]; po, 40 mg/kg) of the same compound?
**A.** 24 h

**Q.** What about the bioavailability ([5]; po, 40 mg/kg, % F) of the same compound?
**A.** 57%

**Q.** What about the bioavailability ([5]; po, 40 mg/kg, %F) of the same compound?
**A.** 57 ± 10%

**Q.** What about the concentration at 24 h ([5]; po, 40 mg/kg, Cmin) of the same compound?
**A.** 0.65 ± 0.35 µM

**Q.** What about the concentration at 0.25 h [5, 10] of the same compound?
**A.** 46.1 ± 8 µM

**Q.** What about the concentration at 0.5 h [5, 10] of the same compound?
**A.** 28.2 ± 4.1 µM

**Q.** What about the concentration at 1 h [5, 10] of the same compound?
**A.** 12.7 ± 2.7 µM

**Q.** What about the concentration at 2 h [5, 10] of the same compound?
**A.** 5.4 ± 0.31 µM

**Q.** And the concentration at 4 h [5, 10]?
**A.** 3.2 ± 0.25 µM

**Q.** What about the concentration at 8 h [5, 10] of the same compound?
**A.** 2.4 ± 0.45 µM

**Q.** And the concentration at 24 h [5, 10]?
**A.** 0.64 ± 0.35 µM

**Q.** What about the half-life ([5]; po, 40 mg/kg, t 1/2) of the same compound?
**A.** 8.5 h

**Q.** And the half-life ([5]; po, 40 mg/kg, t1/2)?
**A.** 8.5 ± 0.24 h

**Q.** And the reduction in parasitemia ([6]; P. berghei mouse model, IV dosing)?
**A.** no reduction in parasitemia

**Q.** What about the “reduction in parasitemia / efficacy” value ([6]; P. berghei mouse model, oral dosing (20c 5 × 40 mg per kg per day)) of the same compound?
**A.** no reduction in parasitemia

**Q.** And the “Live/Dead and luminescence, individual mice” value ([6]; Table S1, oral 1 x daily Days 2-6, imaged Day 7, Cmpd 1 45 mg/kg, CQ 20 mg/kg)?
**A.** Dead by Day 6 and Dead by Day 7 and 1.33E+06

**Q.** What about the “Luminescence after background subtraction AVG” value [6, 11] of the same compound?
**A.** 1.39E+06

**Q.** And the “Luminescence after background subtraction, individual mice” value [6, 11]?
**A.** 9.49E+05 and 1.50E+06 and 1.72E+06 and 2.00E+06 and 7.68E+05

**Q.** What about the “treated mice dead by Day 7 (of 5)” value ([6]; oral 45 mg/kg/d Days 2-6) of the same compound?
**A.** 4

**Q.** What about the EC50 [7] of the same compound?
**A.** 250 ± 70 nM

**Q.** What about the half-life at 1 µM [8] of the same compound?
**A.** ~0.167 h

**Q.** And the “% remaining at 60 min” value ([8]; 1 h, 1 µM)?
**A.** 103.9%
